From patent US20250368649A1, “TETRAHYDROPYRIDOPYRIMIDINE PAN-KRAS INHIBITORS” (Mirati Therapeutics, Inc., priority 2022, published 2025)

What was measured:
[1] = tested on: PSN1 cells; experiment: Inhibition of KRas-mediated phosphorylation of ERK (Cisbio HTRF pERK), PSN1 cells; assay type: cell-based; details: Homo sapiens, PSN1, 3 h
Procedure: (§1) Inhibition of KRas Phosphorylation of ERK (HTRF) by Exemplary Compounds of Formula (I) Cisbio HTRF Advanced pERK Assay Catalog #64AERPEH • Cells: MKN1, PSN1 • Procedure: • Day 1: Seed 6,000 cells/well -25 µl/well in 384-well white solid bottom plate; RPM1_10% FBS.

[2] = molecular target: KRas G12V (Homo sapiens, UniProt P01116, G12V); experiment: biochemical; details: Binding to KRas (IC50 nM) G12V, TR-FRET displacement, KRas G12V
[3] = tested on: H727 cells; experiment: Inhibition of KRas-mediated phosphorylation of ERK (Cisbio HTRF pERK), H727 cells; assay type: cell-based; details: Homo sapiens; for IC50: NCI-H727, 3 h, 3 hr compound incubation
[4] = tested on: ASPC1 cells; experiment: Inhibition of KRas-mediated phosphorylation of ERK (Cisbio HTRF pERK), ASPC1 cells; assay type: cell-based; details: Homo sapiens, AsPC-1 cells; for IC50: ASPC1, 3 h, 3 hr compound incubation
[5] = molecular target: KRas G12R (Homo sapiens, UniProt P01116, G12R); experiment: biochemical; details: Binding to KRas (IC50 nM) G12R, TR-FRET displacement, KRas G12R
[6] = tested on: A549 cells; experiment: Inhibition of KRas-mediated phosphorylation of ERK (Cisbio HTRF pERK), A549 cells; assay type: cell-based; details: Homo sapiens; for IC50: A549, 3 h, 3 hr compound incubation, Cisbio pERK HTRF
[7] = molecular target: KRas G12D (Homo sapiens, UniProt P01116, G12D); experiment: biochemical; details: Binding to KRas (IC50 nM) G12D, TR-FRET displacement, KRas G12D
[8] = tested on: MKN1 cells; experiment: Inhibition of KRas-mediated phosphorylation of ERK (Cisbio HTRF pERK), MKN1 cells; assay type: cell-based; details: Homo sapiens
Procedure: as §1

[9] = tested on: HCT116 cells; experiment: Inhibition of KRas-mediated phosphorylation of ERK (Cisbio HTRF pERK), HCT116 cells; assay type: cell-based; details: Homo sapiens, HCT-116, 3 h, 3 hr compound incubation, Cisbio pERK HTRF
[10] = tested on: H358 cells; experiment: Inhibition of KRas-mediated phosphorylation of ERK (Cisbio HTRF pERK), H358 cells; assay type: cell-based; details: Homo sapiens, NCI-H358, single point at 100 nM, 3 hrs compound incubation
[11] = 3 hour compound incubation, Cisbio pERK HTRF
[12] = MKN-1, 3 hour compound incubation, Cisbio pERK HTRF
[13] = MKN-1, 3 hr compound incubation

Chain of KRas G12R (P01116 1-169 isoform P01116-2 G12R): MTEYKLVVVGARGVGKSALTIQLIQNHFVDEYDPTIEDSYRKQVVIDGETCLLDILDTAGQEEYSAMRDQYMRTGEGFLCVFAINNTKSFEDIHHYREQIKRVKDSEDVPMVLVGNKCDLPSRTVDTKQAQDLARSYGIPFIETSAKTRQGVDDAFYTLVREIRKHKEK
Chain of KRas G12D (P01116 1-169 isoform P01116-2 G12D): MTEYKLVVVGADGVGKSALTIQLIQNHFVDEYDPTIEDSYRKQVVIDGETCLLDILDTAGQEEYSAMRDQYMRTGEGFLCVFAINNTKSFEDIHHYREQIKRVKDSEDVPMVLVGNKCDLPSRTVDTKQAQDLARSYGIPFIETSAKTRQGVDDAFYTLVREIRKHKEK
Chain of KRas G12V (P01116 1-169 isoform P01116-2 G12V): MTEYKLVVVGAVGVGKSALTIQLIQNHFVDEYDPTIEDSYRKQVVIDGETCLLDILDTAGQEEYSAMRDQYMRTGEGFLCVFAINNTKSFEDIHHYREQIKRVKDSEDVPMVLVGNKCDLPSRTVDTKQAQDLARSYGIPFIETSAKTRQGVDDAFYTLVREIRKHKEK

| IC50 [1, 11] [nM] | IC50 [2] [nM] | IC50 ([3]; Cisbio pERK HTRF) [nM] | IC50 ([4]; Cisbio pERK HTRF) [nM] | IC50 [5] [nM] | IC50 [6] [nM] | IC50 [7] [nM] | IC50 [8, 12] [nM] | IC50 [9] [nM] | IC50 ([1]; 3 hr compound incubation) [nM] | IC50 [3] [nM] | IC50 [4] [nM] | IC50 [8, 13] [nM] | SMILES | inhibition at 0.1 µM ([3]; NCI-H727, single point at 100 nM, 3 hrs compound incubation) [%] | inhibition at 0.1 µM ([4]; ASPC1, single point at 100 nM, 3 hrs compound incubation) [%] | inhibition at 0.1 µM ([6]; single point at 100 nM, 3 hrs compound incubation) [%] | inhibition at 0.1 µM [10] [%] |
| --- | --- | --- | --- | --- | --- | --- | --- | --- | --- | --- | --- | --- | --- | --- | --- | --- | --- |
| > 10000 | 9 | 308 | 339 | 3 | 273 | 5 | 99.9 |  |  |  |  |  | CCc1c(F)ccc2cc(O)cc(N3CCc4c(nc(OC[C@@]56CCCN5C[C@H](F)C6)nc4N4CCCn5nc(N(C)C)cc5C4)C3)c12 [Example 405, 4-(4-(2-(dimethylamino)-7,8-dihydro-4H-pyrazolo[1,5-a][1,4]diazepin-5(6H)-yl)-2-(((2R,7aS)-2-fluorotetrahydro-1H-pyrrolizin-7a(5H)-yl)methoxy)-5,8-dihydropyrido[3,4-d]pyrimidin-7(6H)-yl)-5-ethyl-6-fluoronaphthalen-2-ol] |  |  |  |  |
| 4710 | < 2 | 346 | 486 | < 2 | 100 | 4 | 19.9 |  |  |  |  |  | CCc1c(F)ccc2cc(O)cc(N3CCc4c(nc(OC[C@@]56CCCN5C[C@H](F)C6)nc4N4C[C@H]5C[C@@H](C4)C(=O)NC5=O)C3)c12 [Example 416, (1R,5S)-7-(7-(8-ethyl-7-fluoro-3-hydroxynaphthalen-1-yl)-2-(((2R,7aS)-2-fluorohexahydro-1H-pyrrolizin-7a-yl)methoxy)-5,6,7,8-tetrahydropyrido[3,4-d]pyrimidin-4-yl)-3,7-diazabicyclo[3.3.1]nonane-2,4-dione] |  |  |  |  |
| 9630 | < 2 | 275 | 377 | 3 | 322 | 5 | 449 | 3260 |  |  |  |  | CCc1c(F)ccc2cc(O)cc(N3CCc4c(nc(OC[C@@]56CCCN5C[C@H](F)C6)nc4N4CCCC5(CSC5)C4)C3)c12 [Example 421, 5-ethyl-6-fluoro-4-(2-(((2R,7aS)-2-fluorohexahydro-1H-pyrrolizin-7a-yl)methoxy)-4-(2-thia-6-azaspiro[3.5]nonan-6-yl)-5,6-dihydropyrido[3,4-d]pyrimidin-7(8H)-yl)naphthalen-2-ol] |  |  |  |  |
| > 10000 | 5 | 460 | 926 | 9 | 698 | 31 | 148 |  |  |  |  |  | CCc1c(F)ccc2cc(O)cc(N3CCc4c(nc(OC[C@@]56CCCN5C[C@H](F)C6)nc4N4Cc5cn(C(=O)N(C)C)nc5CC(C)(C)C4)C3)c12 [Example 424, 5-(7-(8-ethyl-7-fluoro-3-hydroxynaphthalen-1-yl)-2-(((2R,7aS)-2-fluorohexahydro-1H-pyrrolizin-7a-yl)methoxy)-5,6,7,8-tetrahydropyrido[3,4-d]pyrimidin-4-yl)-N,N,7,7-tetramethyl-5,6,7,8-tetrahydropyrazolo[4,3-c]azepine-2(4H)-carboxamide] |  |  |  |  |
| 4200 | 3 | 578 | 172 | 2 | 164 | 2 | 40 | 215 |  |  |  |  | CCc1c(F)ccc2cc(O)cc(N3CCc4c(nc(OC[C@]56CCCN5[C@H](COC(=O)N(C)C)CC6)nc4N4CCC[C@@](C)(O)C4)C3)c12 [Example 435, ((3S,7aR)-7a-(((7-(8-ethyl-7-fluoro-3-hydroxynaphthalen-1-yl)-4-((R)-3-hydroxy-3-methylpiperidin-1-yl)-5,6,7,8-tetrahydropyrido[3,4-d]pyrimidin-2-yl)oxy)methyl)hexahydro-1H-pyrrolizin-3-yl)methyl dimethylcarbamate] |  |  |  |  |
| 841 | < 2 | 257 | 533 | < 2 | 226 | < 2 | 37.2 | 296 |  |  |  |  | O=C1CC2(CCCN(c3nc(OC[C@@]45CCCN4C[C@H](F)C5)nc4c3CCN(c3cc(O)cc5ccc(F)c(Cl)c35)C4)C2)C(=O)N1 (stereo partly drawn) [Example 467, 7-(7-(8-chloro-7-fluoro-3-hydroxynaphthalen-1-yl)-2-(((2R,7aS)-2-fluorohexahydro-1H-pyrrolizin-7a-yl)methoxy)-5,6,7,8-tetrahydropyrido[3,4-d]pyrimidin-4-yl)-2,7-diazaspiro[4.5]decane-1,3-dione] |  |  |  |  |
| 5350 | < 2 | 19 | 10 | < 2 |  | < 2 | 16.3 |  |  |  |  |  | CCCCN(C)C(=O)c1cc2n(n1)CCCN(c1nc(OC[C@@]34CCCN3C[C@H](F)C4)nc3c1CCN(c1cc(O)cc4ccc(F)c(CC)c14)C3)C2 [Example 496, N-butyl-5-(7-(8-ethyl-7-fluoro-3-hydroxynaphthalen-1-yl)-2-(((2R,7aS)-2-fluorohexahydro-1H-pyrrolizin-7a-yl)methoxy)-5,6,7,8-tetrahydropyrido[3,4-d]pyrimidin-4-yl)-N-methyl-5,6,7,8-tetrahydro-4H-pyrazolo[1,5-a][1,4]diazepine-2-carboxamide] | 71 | 96 | 95 | 97 |
| 9600 | 2 | 277 | 391 | < 2 |  | 4 | 40.8 |  |  |  |  |  | CCc1c(F)ccc2cc(O)cc(N3CCc4c(nc(OC[C@@]56CCCN5C[C@H](F)C6)nc4N4CCCCn5nc(N)cc5C4)C3)c12 [Example 590, 4-(4-(2-amino-6,7,8,9-tetrahydropyrazolo[1,5-a][1,4]diazocin-5(4H)-yl)-2-(((2R,7aS)-2-fluorotetrahydro-1H-pyrrolizin-7a(5H)-yl)methoxy)-5,8-dihydropyrido[3,4-d]pyrimidin-7(6H)-yl)-5-ethyl-6-fluoronaphthalen-2-ol] |  |  |  |  |
|  | < 2 |  |  | < 2 |  | < 2 |  |  | > 10000 | 100 | 48 | 70.3 | CCc1c(F)ccc2cc(O)cc(N3CCc4c(nc(OC[C@@]56CCCN5C[C@H](F)C6)nc4N4CCCn5ncc(CO)c5C4)C3)c12 [Example 633, 5-ethyl-6-fluoro-4-(2-(((2R,7aS)-2-fluorotetrahydro-1H-pyrrolizin-7a(5H)-yl)methoxy)-4-(3-(hydroxymethyl)-7,8-dihydro-4H-pyrazolo[1,5-a][1,4]diazepin-5(6H)-yl)-5,8-dihydropyrido[3,4-d]pyrimidin-7(6H)-yl)naphthalen-2-ol] |  |  |  |  |
|  | < 2 |  |  | < 2 |  | < 2 |  |  | 6000 | 9 | 11 | 1.4 | CCc1c(F)ccc2cc(O)cc(N3CCc4c(nc(OC[C@@]56CCCN5C[C@H](F)C6)nc4N4CCCn5nc(C(=O)N(C6CC6)C6CC6)cc5C4)C3)c12 [Example 637, N,N-dicyclopropyl-5-(7-(8-ethyl-7-fluoro-3-hydroxynaphthalen-1-yl)-2-(((2R,7aS)-2-fluorotetrahydro-1H-pyrrolizin-7a(5H)-yl)methoxy)-5,6,7,8-tetrahydropyrido[3,4-d]pyrimidin-4-yl)-5,6,7,8-tetrahydro-4H-pyrazolo[1,5-a][1,4]diazepine-2-carboxamide] |  |  |  |  |
